Strand notation (5' to 3'): a small letter for the sugar, then the base; units joined by * are phosphorothioate-linked, units joined directly phosphodiester-linked; [ ] holds rarer units or linkages, { } end groups; capitals alone tell only the bases. k = constrained ethyl (cEt); [5mC] = 5-methylcytosine; d = 2'-deoxy (DNA)

In one series the test system is human SMAD7 mRNA. The series is described as follows: Antisense inhibition of human SMAD7 mRNA expression in Hep3B cells by 3-10-3 cEt gapmers, 10,000 nM, electroporation (Example 2). It counts as cell-based. The conditions noted are these: Hep3B cells, 10,000 nM antisense oligonucleotide, electroporation, approximately 24 hours, RT-PCR primer probe set RTS5062, relative to untreated control cells. In a few lines: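 Hep3B cells (20,000 per well) were electroporated with 10,000 nM 16-mer 3-10-3 cEt gapmer (phosphorothioate, 5-methylcytosine). After about 24 h, SMAD7 mRNA was quantified by qRT-PCR with primer probe set RTS5062, normalised to RIBOGREEN total RNA, and expressed as percent inhibition versus untreated cells.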
On to “799871 (kT*kT*kG*dG*dA*d[5mC]*dA*d[5mC]*dA*d[5mC]*dT*d[5mC]*dA*k[5mC]*kT*kG; antisense) [compound 799871]”, for which the “% Inhibition” value was determined as 0%.
On the same count and under the same terms, then “799872 (kA*kA*kG*dT*dT*dA*dA*dT*d[5mC]*dA*dT*dT*dA*k[5mC]*kT*kT; antisense) [compound 799872]”, with 0%.
Still for that read-out and setting: then “799873 (kA*kA*kA*dA*dG*dT*dT*dA*dA*dT*d[5mC]*dA*dT*kT*kA*k[5mC]; antisense) [compound 799873]”, with 0%; and “799874 (k[5mC]*kA*kG*dA*d[5mC]*dT*dG*dG*dA*dA*dA*dA*dG*kT*kT*kA; antisense) [compound 799874]”, with 0%; and “799875 (kG*kT*kG*d[5mC]*dA*dG*dA*d[5mC]*dT*dG*dG*dA*dA*kA*kA*kG; antisense) [compound 799875]”, with 41%.
Turning to “799876 (kG*k[5mC]*k[5mC]*dA*dG*dG*dG*d[5mC]*d[5mC]*dG*d[5mC]*dA*d[5mC]*kT*kG*kT; antisense) [compound 799876]”, the “% Inhibition” value is given as 55%.
As for “799877 (kA*k[5mC]*kT*dT*dT*dA*d[5mC]*dA*dA*d[5mC]*d[5mC]*d[5mC]*dA*kA*kT*kA; antisense) [compound 799877]”, the “% Inhibition” value worked out at 52%.
With “799879 (kT*kG*kG*dA*dA*dA*dA*dG*d[5mC]*dT*d[5mC]*d[5mC]*dT*kT*k[5mC]*kT; antisense) [compound 799879]”, the “% Inhibition” value is 3%.
Same read-out and setting: then “799880 (kT*k[5mC]*k[5mC]*dG*dA*dT*dG*dG*dA*dA*dA*dA*dG*k[5mC]*kT*k[5mC]; antisense) [compound 799880]”, with 39%.
Regarding “799891 (antisense kA*kT*k[5mC]*dA*dT*dT*dA*dA*dG*d[5mC]*d[5mC]*dA*dA*kT*kT*kT) [compound 799891]”, the “% Inhibition” value was found to be 0%.
As for “799892 (antisense kG*k[5mC]*kA*dT*d[5mC]*dA*dT*dT*dA*dA*dG*d[5mC]*d[5mC]*kA*kA*kT) [compound 799892]”, the “% Inhibition” value amounted to 54%.
Still for that read-out and setting: with “799893 (antisense kA*kT*kA*d[5mC]*dA*dA*dA*d[5mC]*d[5mC]*dA*d[5mC]*dT*dG*k[5mC]*kA*kT) [compound 799893]” the figure was 0%; with “799894 (antisense kT*k[5mC]*k[5mC]*d[5mC]*dA*dA*d[5mC]*dT*dG*dG*dG*d[5mC]*dA*kG*k[5mC]*kT) [compound 799894]”, 2%; with “799895 (antisense k[5mC]*kT*kG*dA*dG*dA*dG*dT*dG*dT*dA*dG*dG*kA*kG*kA) [compound 799895]”, 50%.
Still for that read-out and setting: then “799896 (antisense k[5mC]*kT*kT*dA*d[5mC]*d[5mC]*dT*d[5mC]*dA*d[5mC]*d[5mC]*d[5mC]*dA*k[5mC]*k[5mC]*kT) [compound 799896]”, with 36%.
Same read-out and setting: then “799897 (antisense kT*k[5mC]*kT*d[5mC]*dT*dT*dA*d[5mC]*d[5mC]*dT*d[5mC]*dA*d[5mC]*k[5mC]*k[5mC]*kA) [compound 799897]”, with 27%; and “799898 (antisense kG*kT*k[5mC]*dT*d[5mC]*dT*dT*dA*d[5mC]*d[5mC]*dT*d[5mC]*dA*k[5mC]*k[5mC]*k[5mC]) [compound 799898]”, with 37%; and “799899 (antisense kA*kA*kG*dT*d[5mC]*dT*d[5mC]*dT*dT*dA*d[5mC]*d[5mC]*dT*k[5mC]*kA*k[5mC]) [compound 799899]”, with 33%.
Turning to “799900 (antisense k[5mC]*kA*kA*dG*dT*d[5mC]*dT*d[5mC]*dT*dT*dA*d[5mC]*d[5mC]*kT*k[5mC]*kA) [compound 799900]”, the “% Inhibition” value is 51%.
Still for that read-out and setting: then “799910 (antisense k[5mC]*k[5mC]*kA*dA*d[5mC]*dT*d[5mC]*d[5mC]*dA*dT*dT*d[5mC]*dA*kT*kA*kA) [compound 799910]”, with 36%; and “799911 (antisense kA*kG*k[5mC]*d[5mC]*dA*dA*d[5mC]*dT*d[5mC]*d[5mC]*dA*dT*dT*k[5mC]*kA*kT) [compound 799911]”, with 0%.
Same read-out and setting: then “799912 (antisense k[5mC]*kT*k[5mC]*dA*dG*dA*dG*dG*dA*dA*dG*dG*dG*kT*kG*kG) [compound 799912]”, with 22%; and “799913 (antisense kG*kG*k[5mC]*d[5mC]*dT*d[5mC]*dA*dG*dA*dG*dG*dA*dA*kG*kG*kG) [compound 799913]”, with 18%; and “799914 (antisense k[5mC]*kT*kG*dA*dG*dA*dG*dA*dG*dG*d[5mC]*d[5mC]*dT*k[5mC]*kA*kG) [compound 799914]”, with 24%.
On to “799915 (antisense kG*k[5mC]*kT*dG*dA*d[5mC]*dG*d[5mC]*dG*dG*d[5mC]*dT*dT*k[5mC]*k[5mC]*kT) [compound 799915]”, for which the “% Inhibition” value was found to be 52%.
Regarding “799916 (antisense k[5mC]*kA*k[5mC]*dA*dA*dA*dT*d[5mC]*dA*dA*dA*dA*dG*k[5mC]*kT*k[5mC]) [compound 799916]”, the “% Inhibition” value is given as 47%.
The same measure, in the same setting: with “799917 (antisense kT*kG*kG*dA*dG*dA*dA*dT*dG*dT*dA*dA*dT*kT*kG*kA) [compound 799917]” the figure was 17%.
Turning to “799918 (antisense k[5mC]*kA*kT*dT*dT*dA*dT*d[5mC]*dT*d[5mC]*dG*d[5mC]*d[5mC]*kA*kT*kG) [compound 799918]”, the “% Inhibition” value is on record as 16%.
Regarding “799919 (antisense kT*k[5mC]*k[5mC]*dT*dA*dA*dG*dA*dG*d[5mC]*dA*dT*dT*kT*kA*kT) [compound 799919]”, the “% Inhibition” value is 0%.

Still in this series, the particulars now being: Hep3B cells, electroporation with 10,000 nM antisense oligonucleotide, approximately 24 hours, SMAD7 mRNA by RT-PCR (RTS5062), relative to untreated control cells.
As to “799881 (kA*kA*kT*dA*dA*dA*dT*dT*d[5mC]*d[5mC]*dA*dA*dT*kG*k[5mC]*kA; antisense) [compound 799881]”, the “% Inhibition” value is 0%.
Still for that read-out and setting: with “799882 (kT*kT*kT*dG*dA*dA*d[5mC]*dA*dT*dT*dT*dA*d[5mC]*kT*kG*k[5mC]; antisense) [compound 799882]” the figure was 41%; with “799883 (kT*k[5mC]*kT*dA*dG*dA*dG*dG*dG*dT*dA*dG*dG*kA*kA*kA; antisense) [compound 799883]”, 9%.
As for “799884 (k[5mC]*kT*k[5mC]*d[5mC]*dA*dG*dT*dT*dT*d[5mC]*dT*dA*dG*kA*kG*kG; antisense) [compound 799884]”, the “% Inhibition” value came out at 0%.
With “799885 (k[5mC]*k[5mC]*k[5mC]*d[5mC]*dA*d[5mC]*dA*dG*dA*dT*d[5mC]*d[5mC]*dA*kA*k[5mC]*kT; antisense) [compound 799885]”, the “% Inhibition” value worked out at 0%.
The same measure, in the same setting: then “799886 (antisense kA*k[5mC]*k[5mC]*dA*dA*dG*d[5mC]*dT*dA*d[5mC]*dT*dT*dT*kT*kG*k[5mC]) [compound 799886]”, with 25%.
Consider “799887 (antisense k[5mC]*kA*kG*dG*dA*d[5mC]*dA*dG*dT*dT*dT*dT*dT*k[5mC]*k[5mC]*k[5mC]) [compound 799887]”, for which the “% Inhibition” value worked out at 29%.
Take “799888 (antisense kG*kG*kA*d[5mC]*dA*dA*dA*dA*d[5mC]*d[5mC]*d[5mC]*d[5mC]*dT*kA*kG*kA) [compound 799888]”: the “% Inhibition” value is recorded as 22%.
Still for that read-out and setting: with “799889 (antisense kA*kA*kA*dA*dG*dG*dA*d[5mC]*dA*dA*dA*dA*d[5mC]*k[5mC]*k[5mC]*k[5mC]) [compound 799889]” the figure was 45%; with “799890 (antisense k[5mC]*kA*kT*dT*dA*dA*dG*d[5mC]*d[5mC]*dA*dA*dT*dT*kT*kT*k[5mC]) [compound 799890]”, 41%; with “799901 (antisense kA*kG*kT*d[5mC]*dA*dA*dG*dT*d[5mC]*dT*d[5mC]*dT*dT*kA*k[5mC]*k[5mC]) [compound 799901]”, 31%.
With “799902 (antisense kG*kG*kA*dA*dG*dA*d[5mC]*dA*d[5mC]*dA*dA*dG*dG*kG*k[5mC]*kT) [compound 799902]”, the “% Inhibition” value turned out to be 34%.
For the substance “799903 (antisense kT*kG*k[5mC]*dA*dT*dG*dG*d[5mC]*dA*dT*dT*dG*dT*k[5mC]*kT*kG) [compound 799903]”, the “% Inhibition” value came out at 34%.
On the same count and under the same terms, then “799905 (antisense kA*kG*kT*d[5mC]*dG*dA*dA*dT*d[5mC]*dA*dT*dT*dT*k[5mC]*kT*k[5mC]) [compound 799905]”, with 53%; and “799906 (antisense k[5mC]*kA*kT*dG*d[5mC]*dA*dG*dT*d[5mC]*dG*dA*dA*dT*k[5mC]*kA*kT) [compound 799906]”, with 11%; and “799907 (antisense kA*kG*kT*dA*dA*dA*dG*dG*dG*d[5mC]*d[5mC]*dT*d[5mC]*kT*k[5mC]*kT) [compound 799907]”, with 10%.
“799908 (antisense k[5mC]*kA*kT*dA*dA*dT*dA*dT*dT*dG*dA*d[5mC]*dA*kG*kT*kA) [compound 799908]”: the “% Inhibition” value is recorded as 41%.
On the same count and under the same terms, with “799909 (antisense kA*kT*kT*d[5mC]*dA*dT*dA*dA*dT*dA*dT*dT*dG*kA*k[5mC]*kA) [compound 799909]” the figure was 36%.
The same measure, in the same setting: then “799920 (antisense kG*kA*kT*dG*dA*dA*dT*dG*d[5mC]*dT*d[5mC]*d[5mC]*dT*kA*kA*kG) [compound 799920]”, with 0%; and “799922 (antisense kA*k[5mC]*kA*d[5mC]*dT*dA*dA*dT*dT*dA*dG*dT*dG*kA*k[5mC]*kT) [compound 799922]”, with 15%; and “799923 (antisense kG*k[5mC]*k[5mC]*dT*dA*d[5mC]*dA*dT*dA*dT*dT*dT*d[5mC]*kG*k[5mC]*kA) [compound 799923]”, with 15%.

As usually defined, the % Inhibition is the share of the control response that was lost under treatment. High values mean a strong effect, low ones a weak effect.

The values above are taken from patent publication US10517889B2, “Modulators of SMAD7 expression” (Ionis Pharmaceuticals, Inc., priority 2017, dated 2019).
